These are literature values, as cited in patent US20110052686A1, “MODIFIED RELEASE LAMOTRIGINE TABLETS” (RANBAXY LABORATORIES LIMITED, priority 2009, published 2011).

The conditions of the data set: oral administration.

Consider `Nc1nnc(-c2cccc(Cl)c2Cl)c(N)n1` [Lamotrigine, 3,5-diamino-6-(2,3-dichlorophenyl)-1,2,4-triazine], for which the “effect of food on bioavailability” value was “not affected by food”, the first-pass metabolism result is reported as “negligible first-pass metabolism” and the “time of peak plasma concentrations following drug administration” value was 1.4 to 4.8 h.
